# Test system: NMDA receptor
# Settings: NMB rat; CPP 2.5 mg total i.v. (1.25 mg/ml x 0.2 ml/min x 10 min) infused before tetanus; ERs hours 7-16 post-tetanus vs control
smiles,measurement,value
"O=C(O)C1CN(CCCP(=O)(O)O)CCN1 (stereo not shown) [CPP, 3-(2-Carboxypiperazin-4-yl)-propyl-1-phosphoric acid]",effect of a A+C-fiber tetanus on the A-fiber ERs (NTS evoked responses),blocked the effect of a A+C-fiber tetanus on the A-fiber ERs
